Values quoted from earlier work as cited in patent US8632828B2, “Chinese herbal medicine composition used for antiinflammation, detumescence and acesodyne, and preparation method and use thereof” (priority 2009, dated 2014).

Key:
mice = conditions: subcutaneous injection
People = conditions: oral administration
rats = conditions: intravenous injection
melanin tumour = conditions: mice, intraperitoneal injection
[1] = test system: ehrlich ascites tumor of mice; conditions: intraperitoneal injection

CCN1C[C@]2(COC)[C@H](O)C[C@H](OC)[C@@]34[C@@H]5C[C@@]6(O)[C@H](OC(=O)c7ccccc7)[C@@H]5[C@@](OC(C)=O)([C@@H]([C@H](OC)[C@H]23)[C@@H]14)[C@@H](O)[C@@H]6OC [Aconitine]
LD50 (mice): 0.32 mg/kg | fatal dosage (People): 2~5 mg

COc1c2ccoc2cc2oc(=O)ccc12 [bergapten]
LD50 (rats): 945 mg/kg

Cc1cc(O)c2c(c1)C(=O)c1cc(O)cc(O)c1C2=O [emodin]
inhibiting effect on melanin tumour (melanin tumour): injection, have good inhibiting | inhibiting effect on ehrlich ascites tumor [1]: injection, have good inhibiting

COC[C@]12CN(C)[C@@H]3[C@@H]4[C@H](OC)[C@H]1[C@@]3([C@@H](OC)C[C@H]2O)[C@@H]1C[C@@]2(O)[C@H](OC(=O)c3ccccc3)[C@@H]1[C@]4(OC(C)=O)[C@@H](O)[C@@H]2OC [mesaconitine]
fatal dosage (mice): fatal dosage was 0.3~0.5 mg/kg.

COc1c2occc2cc2ccc(=O)oc12 [xanthotoxin]
LD50 (rats): 160 mg/kg
